From patent publication US12318435B2, “Recombinant protein produced from cholinesterase gene derived from Pseudomonas aeruginosa and the composition comprising the same for treating or preventing a neurological disease” (priority 2019, dated 2025)

Assays:
Assay type in all cases: in vivo
ACHE activity = assay: Serum ACHE activity of pesticide-exposed mice; conditions: serum of the mice of Experimental Example 2; for ACHE activity, Concentration (mU/mL): 25° C., 570 nm
Procedure: (§1) Specific pathogen-free female ICR mice (about 20 g, aged 6 weeks) were purchased from ORIENT Co. (Seoul, Korea) and acclimated with the experimental environment for 1 week.
(§2) The mice used in Experimental Example 2 intraperitoneally injected with […] of NP protein as a test sample group, were killed with carbon dioxide gas (Shinyang Oxygen Industry, Korea) and the blood was collected from the heart to isolate the serum.
30 mins after the reaction, the absorbance of the reaction solution was determined at every 1 min at 570 nm using by spectrometer (Multiskan Go., Thermo Scientific) and the determined level was calculated according to following Math. […] [Math. 2] 4-2. Test Result

choline = assay: Blood level of choline in pesticide-exposed animal model; conditions: serum of the mice of Experimental Example 2; for Level of blood acetylcholine, Concentration: absorbance 570 nm
Procedure: In order to determine the effect on the blood level of choline of the inventive NP protein in pesticide-exposed animal model, following test was performed by the procedure disclosed in the literature (Choline/Acetylcholine Quantification Colorimetric/Fluorometric Kit, Biovision incorporated 155 S Milpitas Boulevard, Milpitas, Calif. 95035 USA).
as §1, §2
The choline level of blood serum was determined Choline/Acetylcholine Quantification Colorimetric/Fluorometric Kit (Cat. No. K615-100, Biovision).
1 μL of serum was added to 49 μL of buffer solution in the kit and the reaction mixture containing […] of buffer solution, 2 μL of choline probe, 2 μL of ACHE and 2 μL of enzyme mixture solution was added thereto to react together in the shadow at 25° C. for 30 mins.
30 mins after the reaction, the absorbance of the reaction solution was determined at 570 nm using by spectrometer (Multiskan Go., Thermo Scientific) and the determined level was transformed into absolute value by comparing with the level of standard curve.
The level of choline was calculated according to following Math. 1 Blood Level of choline(nmole/mL or micromole)=(calculated level of choline through standard curve)/(the amount of samples in each well;mL). [Math. 1] 3-2. Test Result

ICR mice = assay: Survival rate in pesticide-exposed animal model; conditions: female ICR mice, intraperitoneal; 250 μg NP protein, 30 μg carbofuran, 9 mg trichlorfon; NP 40 mins before pesticide; survival observed for 30 mins
Procedure: In order to determine the survival rate of the inventive NP protein on pesticide-exposed animal model, following test was performed by the procedure disclosed in the literature (Gupta, Ramesh C., ‘Carbofuran toxicity’, Journal of Toxicology and Environmental Health, Part A, 43:4, pp 383-418, 1994).
as §1
250 μg of NP protein was intraperitoneally injected to the mice as a test sample group to observe the behavior of the mice for 40 mins and 30 μg of carbofuran and 9 mg of trichlorfon were intraperitoneally injected to the mice to observe the survival rate of the mice for 30 mins.
The group intraperitoneally injected with only 30 μg of carbofuran or 9 mg of trichlorfon were used as positive control groups to observe the survival rate of the mice and the group intraperitoneally injected with only distilled water […] was used as a negative control group to observe the survival rate of the mice.

SMILES	ACHE activity compared with negative control group (in words) (ACHE activity)	ACHE activity, Concentration (mU/mL) (ACHE activity)	amount of acetylcholine (in words) (choline)	Level of blood acetylcholine, Concentration (choline) [nmol/mL]	Survival rate (%) (ICR mice)
COP(=O)(OC)C(O)C(Cl)(Cl)Cl (stereo not shown) [Trichlorfon, trichlorfon]	decreased ACHE activity	117.7	sharply increased amount of acetylcholine	1.4	60
CNC(=O)Oc1cccc2c1OC(C)(C)C2 [Carbofuran]	decreased ACHE activity	463.8	sharply increased amount of acetylcholine	1.8	0
